Results as given in patent US20240400604A1, “NUCLEOSIDE TRIPHOSPHATE PHOTOAFFINITY PROBE, METHOD FOR PREPARING SAME, AND APPLICATIONS THEREOF” (SHANDONG UNIVERSITY, priority 2023, published 2024).

Tests used:
[1] = test system: ATP-binding proteins in HEK 293T cell lysates; test: Proteomic LC-MS/MS (LFQ) analysis of HEK 293T cell lysates labeled with the ATP-N probe, ATP competition; design: species or system human
Experimental: (§1) 1 mg of cell lysate was labeled with 10 μM ATP-N probe. The subsequent steps were the same as in Section 1.3 of Example 3.
(§2) The C18 pre-column (Thermo Fisher, 164564-CMD, 100 μm×2 cm) and analytical column (Thermo Fisher, 164941, 75 μm×25 cm) used in the LC-MS/MS analysis were commercially available. The liquid chromatography (Vanquish Neo, Thermo Fisher) settings were as follows: Solvent A was 98% H2O with 0.1% FA, and Solvent B was 98% ACN with 0.1% FA. The flow rate was 300 nL/min, with the elution gradient as follows: 0 minutes, 2% B; 5 minutes, 26% B; 127 minutes, 36% B; 137 minutes, 72% B; 142 minutes, 80% B; and 143-153 minutes, 80% B. The mass spectrometer (Orbitrap Exploris 480, Thermo Fisher) settings were: full MS scan in positive ion mode, electrospray ion source voltage 1.9 kV, ion transfer tube temperature 320° C., scan m/z range 350-1500, resolution of 120000, AGC target 300%, maximum injection time 25 ms. For dd-MS^2, resolution was 15000, AGC target 50%, maximum injection time was automatically selected, and the cycle time for MS scanning was set to 3 s. DDA mode was used for data acquisition and the data collection time was 0-142 minutes.
The obtained MS raw files were analyzed using Proteome Discoverer 2.5 software, and searched against the Uniprot human protein database (as of November 2022, total proteins: 20401). Enzyme specificity was set to trypsin, cysteine carbamidomethylation was set as a fixed modification, and methionine oxidation and N-terminal acetylation were set as variable modifications.
HEK 293T cell lysates were labeled with 10 μM ATP-N probe. Labeled proteins were enriched with streptavidin beads, and digested with trypsin to prepare peptide samples for LC-MS/MS analysis. Adding 100 μM ATP as the competitor during probe labeling, the labeling of ATP-binding proteins would be interfered. Compared with the probe-labeling group without competitors, more specific ATP-binding proteins could be identified with label-free quantitative (LFQ) analysis.

VRK1 = target: T1, VRK1 (Homo sapiens, UniProt Q99986); test: Identification of ATP-N probe-modified site by LC-MS/MS; conditions: close to ATP-binding pocket, FIG. 26b
T1 construct: in the samples of HEK 293T cell lysates labeled with the ATP-N probe; endogenous in cells; host or cells: HEK 293T cell lysate
T1 sequence (Q99986 1-396): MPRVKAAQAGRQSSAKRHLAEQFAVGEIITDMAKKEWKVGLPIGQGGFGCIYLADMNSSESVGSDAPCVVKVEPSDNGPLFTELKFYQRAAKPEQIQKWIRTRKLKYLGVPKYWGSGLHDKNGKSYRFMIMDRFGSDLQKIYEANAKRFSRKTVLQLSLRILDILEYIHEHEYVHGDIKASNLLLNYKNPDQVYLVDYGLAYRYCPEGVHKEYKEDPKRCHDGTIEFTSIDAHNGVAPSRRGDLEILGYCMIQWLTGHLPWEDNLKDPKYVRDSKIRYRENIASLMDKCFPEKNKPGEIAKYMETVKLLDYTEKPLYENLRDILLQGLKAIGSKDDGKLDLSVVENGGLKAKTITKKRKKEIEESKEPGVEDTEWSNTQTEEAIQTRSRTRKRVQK
Experimental: as §1, §2
(§3) The obtained MS raw files were analyzed using Proteome Discoverer 2.5 software, and searched against the Uniprot human protein database (as of November 2022, total proteins: 20401). […]

[2] = target: T2, N-acetylglucosamine kinase (NAGK) (Homo sapiens, UniProt Q9UJ70); test: as above; conditions: near ATP-binding pocket, FIG. 26a
T2 construct: in the samples of HEK 293T cell lysates labeled with the ATP-N probe; endogenous in cells; host or cells: HEK 293T cell lysate
T2 sequence (Q9UJ70 whole entry): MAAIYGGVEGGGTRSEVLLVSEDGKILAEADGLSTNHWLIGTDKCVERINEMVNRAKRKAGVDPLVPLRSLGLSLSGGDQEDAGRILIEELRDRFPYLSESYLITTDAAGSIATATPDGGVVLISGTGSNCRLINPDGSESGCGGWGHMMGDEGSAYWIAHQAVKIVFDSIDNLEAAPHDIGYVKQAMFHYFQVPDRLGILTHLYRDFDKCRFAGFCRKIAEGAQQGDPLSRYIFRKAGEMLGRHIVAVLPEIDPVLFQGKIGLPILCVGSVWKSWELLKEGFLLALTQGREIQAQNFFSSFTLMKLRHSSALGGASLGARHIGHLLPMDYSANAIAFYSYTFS
Experimental: as §1, §2, §3

[3] = test system: ATP-binding proteins in HEK 293T cell lysates; test: In-gel fluorescence imaging of HEK 293T cell lysates labeled with the ATP-N probe; conditions: FIG. 23a, in-gel fluorescence
ACTR2 = target: T3, ACTR2 (Homo sapiens, UniProt P61160); test: EHT 1864 competitive GTP-N probe labeling of HEK 293T cell lysates, LC-MS/MS; format: binding; conditions: GTP-N probe 20 μM; EHT 1864 20, 40, 100, 200 μM
T3 construct: endogenous in cells; host or cells: HEK 293T cell lysate
Experimental: (§4) Using the On-Beads digestion method, the GTP-N probe was used for protein labeling of HEK 293T cell lysates. For the competition experiments, a GTP-competitive inhibitor EHT 1864 was added before probe labeling to inhibit probe binding with targeted GTP-binding proteins. The final concentration of the probe was 20 μM, and EHT 1864 was used at concentrations of 20 μM, 40 μM, 100 μM, and 200 μM, respectively. The inhibitor was pre-incubated with cell lysates on ice for 10 minutes, followed by the GTP-N probe labeling, sample preparation, and LC-MS/MS analysis, same as in Section 1.3 of Example 3.

PLCG1 = target: T4, PLCG1 (Homo sapiens, UniProt P19174); test: as above; format: binding; conditions: GTP-N probe 20 μM; EHT 1864 20, 40, 100, 200 μM
T4 construct: the GTP-N probe was used for protein labeling of HEK 293T cell lysates; endogenous in cells; host or cells: HEK 293T cell lysate
T4 sequence (P19174 1-1290): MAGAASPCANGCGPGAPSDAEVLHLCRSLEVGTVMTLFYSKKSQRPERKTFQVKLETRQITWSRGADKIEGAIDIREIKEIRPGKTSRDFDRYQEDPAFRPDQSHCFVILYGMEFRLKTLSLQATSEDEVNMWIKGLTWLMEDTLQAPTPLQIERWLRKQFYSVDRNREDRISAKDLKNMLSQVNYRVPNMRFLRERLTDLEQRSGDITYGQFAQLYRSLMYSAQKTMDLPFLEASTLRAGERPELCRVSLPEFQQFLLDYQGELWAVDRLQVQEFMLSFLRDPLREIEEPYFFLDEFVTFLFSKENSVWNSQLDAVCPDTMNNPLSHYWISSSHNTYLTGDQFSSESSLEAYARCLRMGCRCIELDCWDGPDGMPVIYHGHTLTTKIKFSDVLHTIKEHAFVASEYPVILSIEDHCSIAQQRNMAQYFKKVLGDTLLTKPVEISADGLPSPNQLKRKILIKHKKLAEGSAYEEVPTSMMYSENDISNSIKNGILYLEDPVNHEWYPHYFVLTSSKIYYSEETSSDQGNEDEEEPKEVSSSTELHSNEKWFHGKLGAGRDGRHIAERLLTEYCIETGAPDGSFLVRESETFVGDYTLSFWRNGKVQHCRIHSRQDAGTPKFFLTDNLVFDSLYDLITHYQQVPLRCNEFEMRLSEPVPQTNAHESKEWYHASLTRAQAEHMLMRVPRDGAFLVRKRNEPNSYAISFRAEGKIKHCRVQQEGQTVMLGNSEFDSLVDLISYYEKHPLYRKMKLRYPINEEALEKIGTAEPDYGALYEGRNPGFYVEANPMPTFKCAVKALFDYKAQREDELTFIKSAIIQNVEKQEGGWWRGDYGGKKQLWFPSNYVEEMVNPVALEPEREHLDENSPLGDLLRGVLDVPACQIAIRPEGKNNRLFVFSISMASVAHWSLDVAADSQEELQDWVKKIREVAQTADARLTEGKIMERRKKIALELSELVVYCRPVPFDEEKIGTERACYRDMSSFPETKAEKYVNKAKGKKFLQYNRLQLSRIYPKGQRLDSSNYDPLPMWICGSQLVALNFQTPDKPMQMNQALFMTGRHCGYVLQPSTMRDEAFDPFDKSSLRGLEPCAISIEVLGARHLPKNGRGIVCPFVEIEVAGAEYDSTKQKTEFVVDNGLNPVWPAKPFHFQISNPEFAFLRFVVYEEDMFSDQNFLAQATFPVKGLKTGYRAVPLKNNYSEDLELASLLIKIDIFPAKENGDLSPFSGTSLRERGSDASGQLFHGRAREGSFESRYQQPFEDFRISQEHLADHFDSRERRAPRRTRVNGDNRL
Experimental: as §4

ACTR3 = target: T5, ACTR3 (Homo sapiens, UniProt P61158); test: as above; format: binding; conditions: GTP-N probe 20 μM; EHT 1864 20, 40, 100, 200 μM
T5 construct: the GTP-N probe was used for protein labeling of HEK 293T cell lysates; endogenous in cells; host or cells: HEK 293T cell lysate
Experimental: as §4

[4] = test system: ATP-binding proteins, including kinases; test: Staurosporine competitive ATP-N probe labeling of cell lysates, LC-MS/MS; design: species or system human; conditions: staurosporine at 1×, 10×, 20× concentration of the ATP-N probe; one biological replicate
Experimental: The preparation of mass spectrometry samples was the same as in Section 1.3 of Example 7, except that ATP was replaced with different concentrations of staurosporine.
Prior to probe labeling, cell lysates were pre-incubated on ice with staurosporine at 1×, 10×, and 20× concentration of the ATP-N probe, and compared with the control group without staurosporine treatment. Potential target proteins of kinase inhibitors were screened based on the abundance ratio between the competition group and the control group through LC-MS/MS analysis. Theoretically, as the concentration of the inhibitor increases, the labeling efficiency of its target proteins should gradually decrease. Therefore, proteins were screened based on their abundance ratios ([…]), identifying proteins whose detected abundance decreased with increasing inhibitor concentrations. Proteins with lower confidence were filtered out, leaving proteins that met the criteria for further analysis. Most proteins with reduced labeling efficiency after staurosporine treatment were ATP-binding proteins, including kinases, and this trend increased with higher inhibitor concentrations. […] Since the data presented in this example represent only one biological replicate, there may be some errors. Typically, using the average values and p-values from three biological replicates would yield more reliable results.

[5] = GO-MF analysis of screened proteins

SMILES: C#CCCC1(CCNP(=O)(O)OP(=O)(O)OP(=O)(O)OC[C@H]2O[C@@H](n3cnc4c(N)ncnc43)C(O)[C@H]2O)N=N1 (stereo partly drawn) [ATP-N probe]
- proteins with significantly decreased intensity in the ATP competition group ([1]; 10 μM probe, 100 μM ATP, all three replicates, ratio>2, p-value<0.05): More than 160
- of these, kinases [1, 5]: around 78
- of these, previously annotated ATP-binding proteins [1, 5]: approximately 129
- share of annotated ATP-binding proteins among all screened proteins [1, 5]: over 80%
- proteins with significantly decreased intensity in the competition group, probe-modified peptides ([1]; quantitative analysis of probe-modified peptides, all three replicates, ratio>2, p-value<0.05): About 44
- probe-labeled residue (VRK1): Glu73
- probe-modified residue [2]: Glu16
- lowest probe concentration showing clear fluorescent bands [3]: 1 µM

SMILES: O=c1cc(CN2CCOCC2)occ1OCCCCCSc1ccnc2cc(C(F)(F)F)ccc12 [EHT 1864]
- protein intensity of ACTR2 in competition groups (ACTR2): overall decreased protein intensities
- protein intensity of PLCG1 in competition groups (PLCG1): overall decreased protein intensities
- protein intensity of ACTR3 in competition groups (ACTR3): overall decreased protein intensities

SMILES: CN[C@@H]1C[C@H]2O[C@@](C)([C@@H]1OC)n1c3ccccc3c3c4c(c5c6ccccc6n2c5c31)C(=O)NC4 [staurosporine, Staurosporine]
- proteins with significantly reduced ATP-N probe labeling in the competition group [4]: several known staurosporine targets were identified
